# Reference: patent US20200223889A1, “Bicyclic Compounds Capable of Binding to Melanocortin 4 Receptor” (Novo Nordisk A/S, priority 2017, published 2020)
# Starred links: 1 amine or outer side, 2 acyl side, 3 side chain; linkers in the order of their positions; H or OH if unused. Positions of bridges follow the written chain, without caps; N, C: chain ends. Non-standard residues stand in square brackets, D forms with d. Residues, ends and D or L forms follow the SMILES beside them. Phe(4-CN) = N#Cc1ccc(C[C@H](N)C(=O)O)cc1; Hyp = O=C(O)[C@@H]1C[C@@H](O)CN1; Cit = NC(=O)NCCC[C@H](N)C(=O)O; CH2 = C([*:1])[*:2]
# Columns and labels:
# human MC4R [1] = target: T1, human MC4R (Homo sapiens, UniProt P32245); assay: 125NDP-α-MSH competitive binding to membranes of BHK cells expressing human MC4 receptor (filtration assay); conditions: human MC4R, BHK cell membranes, 125NDP-α-MSH radioligand; read-out: MC4R binding Ki
# T1 construct: expressed in transfected cells
# T1 sequence (P32245 whole entry): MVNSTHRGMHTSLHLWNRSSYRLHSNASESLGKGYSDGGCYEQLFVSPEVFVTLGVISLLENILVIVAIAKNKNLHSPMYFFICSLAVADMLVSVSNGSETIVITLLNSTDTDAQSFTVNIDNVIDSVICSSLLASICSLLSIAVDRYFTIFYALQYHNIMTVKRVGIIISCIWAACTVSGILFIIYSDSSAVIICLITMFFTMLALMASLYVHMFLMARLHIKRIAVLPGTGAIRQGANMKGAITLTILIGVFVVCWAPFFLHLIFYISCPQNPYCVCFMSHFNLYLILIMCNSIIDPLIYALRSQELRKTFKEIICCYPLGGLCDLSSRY
# Method in brief: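 Displacement of ^125NDP-α-MSH (apx. […] final) was measured by filtration after 2 h at 25 °C, using diluted membranes of stably transfected BHK cells in pH 7.0 HEPES buffer. Compounds spanned 1 μM to 0.001 nM; binding curves were analysed by non-linear regression.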
# human MC4R [2] = target: T1, human MC4R; assay: Functional cAMP assay (CisBio HTRF) in BHK cells expressing human MC4R; format: cell-based; conditions: for EC50: BHK cells expressing human MC4R, '>' = highest dose used with no response, read-out: MC4R cAMP EC50; for MC1R/MC4R cAMP EC50 ratio: MC1R cAMP EC50 divided by MC4R cAMP EC50
# Method in brief: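 Compound working solutions, 10-fold dilutions from 2 μM at twice final strength, in buffer containing 1 mM IBMX, were incubated 30 min at 25 °C with BHK cells stably carrying human MC4R or MC1R. Accumulated cAMP was then detected by competitive HTRF after 1 h at 25 °C and fitted by non-linear regression.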
SMILES,Ki (human MC4R [1]) [nM],EC50 (human MC4R [2]) [nM],MC1R/MC4R cAMP EC50 ratio (human MC4R [2])
"C[C@@H]1NC(=O)[C@@H]2CSSC[C@H](NC(=O)[C@H](Cc3ccc(C#N)cc3)NC(=O)[C@H](CCCNC(=N)N)NC(=O)[C@@H](Cc3ccccc3)NC(=O)[C@H](Cc3c[nH]cn3)NC1=O)C(=O)N[C@@H](C)C(=O)N[C@@H](CCCCN)C(=O)N[C@@H](CCCCN)C(=O)N[C@@H](CCCCN)C(=O)N[C@@H](Cc1c[nH]c3ccccc13)C(=O)N2 [Chem. 65, c[c[Cys-Ala-His-D-Phe-Arg-4-CN- Phe-Cys]-Ala-Lys-Lys-Lys-Trp]] (cyclo(AH[dF]R[Phe(4-CN)]CAKKKWC); disulfide 6-12)",0.47,0.42,26
"C[C@@H]1NC(=O)[C@@H]2CSSC[C@H](NC(=O)[C@H](CCCNC(=N)N)NC(=O)[C@H](CCCCN)NC(=O)[C@H](CCCCN)NC(=O)[C@H](CCCCN)NC1=O)C(=O)N1C[C@H](O)C[C@H]1C(=O)N[C@@H](Cc1c[nH]cn1)C(=O)N[C@H](Cc1ccccc1)C(=O)N[C@@H](Cc1c[nH]cn1)C(=O)N[C@@H](Cc1c[nH]c3ccccc13)C(=O)N2 [Chem. 97, c[c[Cys-Hyp-His-D-Phe-His-Trp-Cys]- Ala-Lys-Lys-Lys-Arg]] (cyclo(AKKKRC[Hyp]H[dF]HWC); disulfide 6-12)",0.05,0.19,122
"N=C(N)NCCC[C@@H]1NC(=O)[C@@H]2CSSC[C@H](NC(=O)[C@H](Cc3c[nH]c4ccccc34)NC(=O)[C@H](CCCNC(N)=O)NC(=O)[C@@H](Cc3ccccc3)NC(=O)[C@H](Cc3c[nH]cn3)NC1=O)C(=O)N[C@@H](CCCNC(=N)N)C(=O)N[C@@H](Cc1c[nH]cn1)C(=O)N[C@H](Cc1ccccc1)C(=O)N[C@@H](CCCNC(N)=O)C(=O)N[C@@H](Cc1c[nH]c3ccccc13)C(=O)N2 [Chem. 54, c[c[Cys-Arg-His-D-Phe-Cit-Trp-Cys]- Arg-His-D-Phe-Cit-Trp]] (cyclo(CRH[dF][Cit]WCRH[dF][Cit]W); disulfide 1-7)",0.21,0.04,7
"N=C(N)NCCC[C@@H]1NC(=O)[C@@H](Cc2ccccc2)NC(=O)[C@@H]2C[C@@H](O)CN2C(=O)[C@@H]2CSCSC[C@H](NC(=O)[C@H](Cc3c[nH]c4ccccc34)NC1=O)C(=O)N1C[C@H](O)C[C@H]1C(=O)N[C@H](Cc1ccccc1)C(=O)N[C@@H](CCCNC(=N)N)C(=O)N[C@@H](Cc1c[nH]c3ccccc13)C(=O)N2 [Chem. 26, c[c[Cys-Hyp-D-Phe-Arg-Trp-Cys]- Hyp-D-Phe-Arg-Trp]] (cyclo(C[Hyp][dF]RWC[Hyp][dF]RW); linker 1-6 via CH2)",0.44,–,96
"CC(=O)NCCCC[C@@H]1NC(=O)[C@@H](Cc2ccccc2)NC(=O)[C@H](Cc2c[nH]cn2)NC(=O)[C@H](C)NC(=O)[C@@H]2CSSC[C@H](NC(=O)[C@H](Cc3c[nH]c4ccccc34)NC1=O)C(=O)N[C@@H](C)C(=O)N[C@@H](CCCCN)C(=O)N[C@H](CCCCN)C(=O)N[C@@H](CCCCN)C(=O)N[C@@H](Cc1c[nH]c3ccccc13)C(=O)N2 [Chem. 58, c[c[Cys-Ala-His-D-Phe-AcLys-Trp- Cys]-Ala-Lys-D-Lys-Lys-Trp]] (cyclo(AH[dF]K(Ac)WCAK[dK]KWC); disulfide 6-12)",0.09,0.11,36
